{
  "source": "patent US20140045883A1",
  "about": "“ACK1 KINASE INHIBITION TO TREAT TRIPLE NEGATIVE BREAST CANCER” (H. Lee Moffitt Cancer Center and Research Institute, Inc., priority 2012, published 2014)",
  "key": {"Ack1 [1]": {"molecular_target": "Ack1 (Homo sapiens, UniProt Q07912)", "sequence (Q07912 whole entry)": "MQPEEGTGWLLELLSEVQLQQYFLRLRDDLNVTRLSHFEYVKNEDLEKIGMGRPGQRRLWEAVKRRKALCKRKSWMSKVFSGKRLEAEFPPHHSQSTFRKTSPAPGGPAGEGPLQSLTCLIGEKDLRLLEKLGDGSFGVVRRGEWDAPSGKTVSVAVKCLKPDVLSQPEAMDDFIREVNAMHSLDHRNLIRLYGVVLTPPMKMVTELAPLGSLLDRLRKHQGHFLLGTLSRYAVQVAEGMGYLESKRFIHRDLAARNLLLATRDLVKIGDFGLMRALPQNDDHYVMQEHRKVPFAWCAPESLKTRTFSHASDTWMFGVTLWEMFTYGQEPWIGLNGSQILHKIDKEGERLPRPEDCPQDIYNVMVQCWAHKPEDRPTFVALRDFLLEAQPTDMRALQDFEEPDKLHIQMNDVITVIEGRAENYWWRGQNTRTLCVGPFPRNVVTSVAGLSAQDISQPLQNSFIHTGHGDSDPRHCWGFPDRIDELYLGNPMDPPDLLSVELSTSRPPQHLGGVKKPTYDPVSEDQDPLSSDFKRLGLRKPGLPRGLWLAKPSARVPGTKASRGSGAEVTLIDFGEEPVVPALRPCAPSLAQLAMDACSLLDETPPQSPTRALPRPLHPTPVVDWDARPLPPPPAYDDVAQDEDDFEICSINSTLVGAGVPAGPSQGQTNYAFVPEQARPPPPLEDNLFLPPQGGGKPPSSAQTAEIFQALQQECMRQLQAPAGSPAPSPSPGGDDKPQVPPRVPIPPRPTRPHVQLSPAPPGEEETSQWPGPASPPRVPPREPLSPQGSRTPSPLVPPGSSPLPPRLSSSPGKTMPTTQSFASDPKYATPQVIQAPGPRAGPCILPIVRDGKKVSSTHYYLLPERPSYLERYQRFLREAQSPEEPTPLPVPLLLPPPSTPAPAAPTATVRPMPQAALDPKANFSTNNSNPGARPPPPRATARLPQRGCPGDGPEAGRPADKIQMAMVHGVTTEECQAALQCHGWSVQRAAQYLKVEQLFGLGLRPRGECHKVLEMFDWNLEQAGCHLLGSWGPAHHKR", "assay_type": "cell-based", "conditions": "MCF-7 and A2780-CP cells, AIM-100 overnight (3 μM), insulin or EGF stimulated", "method": "(§1) FIGS. 3A-3B are images of immunoblots of lysates from serum starved MCF-7 and A2780-CP cells treated (or untreated) with insulin or EGF (10 ng/ml) and AIM-100 (3 μM, overnight) that were immunoblotted with pTyr176-AKT (top panel), pSer473-AKT (2nd panel), pThr308-AKT (3rd panel), pTyr284-Ack1 (4th panel) and tubulin (bottom panel).\n(§2) To assess the potential inhibition of Ack1 activity, MCF-7 (breast) and A2780-CP (Ovary) cells were treated with AIM-100 overnight. Cells were either untreated or treated with Insulin (for 30 mins) or EGF (15 min) followed by immunoblotting of lysates with pTyr284-Ack1 antibody."}, "AKT": {"system": "AKT", "assay": "Immunoblot of AKT phosphorylation in insulin/EGF-treated MCF-7 and A2780-CP cells", "assay_type": "cell-based", "conditions": "AIM-100 overnight (3 μM), insulin or EGF stimulated", "method": "as §1, §2"}, "MDA-MB-231 cell line": {"system": "MDA-MB-231 cell line", "assay": "Cell growth assay (WST1)", "assay_type": "cell-based", "conditions": "MDA-MB-231, 72 hours, read-out: IG50 (cell growth)", "method": "(§3) Experiment was performed twice with 8 replicates, a representative data set is shown.\n(§4) To determine whether inhibition of the Ack1/AKT signaling pathway affects TNBC-derived cancer cell proliferation, MDA-MB-231 and MDA-MB-468 cell lines were treated with increasing concentrations of PLX-4032 or AIM-100. A cell growth assay was performed by adding solution of WST1 to 96 wells (5×10^3 cells) and incubation for 1 h. The cell viability as a function of mitochondrial activity in living cells was measured spectrophotometrically at a wavelength of 450 nm."}, "MDA-MB-468 cell line": {"system": "MDA-MB-468 cell line", "assay": "Cell growth assay (WST1)", "assay_type": "cell-based", "conditions": "MDA-MB-468, 72 hours", "method": "as §3, §4"}, "pTyr176-AKT": {"system": "pTyr176-AKT", "assay": "Affinity Purification coupled ELISA for pTyr176-AKT in MDA-MB-231", "assay_type": "cell-based", "conditions": "MDA-MB-231 cells treated with inhibitor", "method": "FIG. 6 is a bar graph showing Affinity Purification coupled ELISA for pTyr176-AKT detection in TNBC derived cell line MDA-MB-231. MDA-MB-231 cell lysates were incubated with streptavidin beads with AKT peptide. The AKT peptides were eluted and phosphorylation was detected using ELISA.\nTowards detecting pY176-AKT in TNBC derived cell lines, MDA-MB-231 (1×10^4 cells) were lysed in reaction buffer containing phosphatase and protease inhibitors and lysates were quantitated. Biotinylated AKT peptide was incubated with streptavidin beads for 1 hours, beads were washed and the AKT peptide coated beads were incubated with cell lysates for 1 hours at room temperature. The beads were washed in PBST and the bound peptides were eluted. To elute the bound biotinylated AKT peptide from Streptavidin Beads, Streptavidin Beads were resuspended in 10 mM NaCl containing solution followed by heating the mix at 75° C. for 2-3 minutes, as described in literature (33). The eluted AKT peptides were immobilized onto streptaviding plates and presence of phospho-peptides was detected by ELISA described above in step I."}, "xenograft tumor": {"system": "xenograft tumor", "assay": "Xenograft tumor growth", "conditions": "in vivo"}, "purified Ack1 kinase": {"molecular_target": "purified Ack1 kinase (Homo sapiens, UniProt Q07912)", "sequence (Q07912 whole entry)": "as above", "conditions": "inhibitor 50 nM, Ack1 50 nM, 5 uM ATP, 1 hour", "experimental": "The peptides sequence is derived from the region that is recognized by Ack1 leading to AKT Tyr176-phosphorylation and activation (13, 15, 17). The phospho-AKT peptide was used as a positive control and as a standard for quantitation of pT176-AKT in tissue samples.\nThe AKT peptides were diluted to final concentration of 1 uM in phosphate buffered saline (PBS) and immobilized onto streptavidin plates (R & D systems) for 1 hour. […] After 1 hour of incubation, plates were washed in PBST and secondary antibody (HRP-conjugated anti-rabbit antibody diluted in BSA) was added. After 1 hour, plates were washed in PBST and devoped using OPD substrate (Sigma) and read at 450 nm."}, "Ack1 [2]": {"system": "Ack1", "assay": "Ack1 autoactivation in transfected HEK293 cells (HA immunoprecipitation, pTyr immunoblot)", "conditions": "HEK293 cells transfected with HA-tagged Ack1 WT/point mutants, 5 uM overnight", "experimental": "Immunoprecipitation with HA-beads followed by immunoblotting with pTyr (top and middle panel) or Ack1 (bottom panel) antibodies was performed.\nSite directed mutagenesis was performed and HA-tagged point mutants were generated. HEK293 cells were transfected, grown in growth factor free media, followed by immunoprecipitation with HA-beads."}},
  "note": "Like-named read-outs stand apart in the source and are kept apart here.",
  "data": [
    {"compound": "c1ccc(-c2oc3ncnc(NC[C@@H]4CCCO4)c3c2-c2ccccc2)cc1", "note": "[AIM-100]", "values": [
      {"measurement": "endogenous pTyr284-Ack1 levels", "setting": "Ack1 [1]", "result": "significantly decreased"},
      {"measurement": "AKT Tyr176/Ser473 and Thr308-phosphorylations", "setting": "AKT", "result": "significant decrease"},
      {"measurement": "IC50", "setting": "MDA-MB-231 cell line", "result": "~16", "unit": "µM"},
      {"measurement": "cellular cytotoxicity (in words)", "setting": "MDA-MB-468 cell line", "result": "rather resistant"},
      {"measurement": "pTyr176-AKT levels (Affinity Purification Coupled ELISA)", "setting": "pTyr176-AKT", "result": "significant decrease"},
      {"measurement": "xenograft tumor growth", "setting": "xenograft tumor", "result": "suppresses"},
      {"measurement": "AKT Tyr176-phosphorylation (ELISA)", "setting": "purified Ack1 kinase", "result": "significant decrease"},
      {"measurement": "Ack1 activation (pTyr immunoblot)", "setting": "Ack1 [2]", "result": "completely abrogated Ack1 activation"}
    ]},
    {"compound": "CCCS(=O)(=O)Nc1ccc(F)c(C(=O)c2c[nH]c3ncc(-c4ccc(Cl)cc4)cc23)c1F", "note": "[PLX4032, Vemurafenib]", "values": [
      {"measurement": "IC50", "setting": "MDA-MB-231 cell line; Homo sapiens", "result": "~13", "unit": "µM"},
      {"measurement": "IC50", "setting": "MDA-MB-468 cell line; Homo sapiens, read-out: IG50 (cell growth)", "result": "~13", "unit": "µM"},
      {"measurement": "pTyr176-AKT levels (Affinity Purification Coupled ELISA)", "setting": "pTyr176-AKT", "result": "significant decrease"},
      {"measurement": "Ack1 activation (pTyr immunoblot)", "setting": "Ack1 [2]", "result": "completely abrogated Ack1 activation"}
    ]}
  ]
}
